Test results from US12466821B2 (Novartis AG, priority 2018, dated 2025).

How the values were obtained:
[1] = target: human CMV DNA polymerase UL54 (Human cytomegalovirus (strain AD169) (HHV-5) (Human herpesvirus 5), UniProt P08546); test: CMV polymerase biochemical assay (molecular beacon-based)
Description: (§1) Both human CMV DNA polymerase UL54 and human HSV DNA polymerase UL30 were produced as N-terminal MBP fusion of the full length, wild type recombinant proteins in order to enhance soluble expression in insect cell expression system. The proteins were expressed in sf9 insect cells via baculovirus transduction and cells were harvested after 48 hours. The soluble proteins were purified using the standard Ni-IMAC purification strategy via the N-terminal hexa-Histidine tag, followed by heparin affinity chromatography. Both of the final MBP fusion proteins were more than 90% pure and the yield of UL54 was up to 1.8 mg per liter culture while UL30 was up to 15 mg per liter culture. All purification steps were performed on ice, with buffers chilled on ice and FPLC fraction collectors set at 6° C. […] UL30 protein was stored in buffer containing 20 mM HEPES, pH7.0, 420 mM NaCl, 20% glycerol, 6 mM Imidazole, and 0.8 mM DTT at−80° C.
(§2) DNA polymerase activity was measured using a molecular beacon-based assay, as described in Ma et. al.
(§3) 100 pM CMV polymerase or 625 pM HSV polymerase was added to a buffer containing 20 mM Tris, pH=7.5, 100 mM NaCl, 10 mM MgCl2, 0.01% Tween-20, 0.5 mM EDTA, 10% Sucrose and 1 mM DTT. The inhibitor was pre-incubated with the polymerase for 30 minutes at room temperature. Reactions were initiated by the addition of a mixture containing 1.25 uM dATP, 1.25 uM dCTP, 1.25 uM dTTP, 1.25 uM dGTP, 200 nM Primer B (5′-GAC GGG AAG-3′5′-GAC GGG AAG-3′) and 100 nM molecular beacon (5′-5,6-FAM-CCTCTCCGTGTCTTGTACTTCCCGTCAGAGAGG-BHQ1-3′). For human CMV polymerase the reactions were incubated for 60 minutes at room temperature. For HSV polymerase the reactions were incubated for 20 minutes at room temperature. The reactions were then read on a Perkin-Elmer EnVision 2101 reader (fluorescence) using an excitation of 480 nm and emission of 535 nm. 1050s were determined using an internal Novartis software (Helios).
as §3, with “nm.” for “nm. 1050s were determined using an internal Novartis software (Helios).”

[2] = target: human HSV DNA polymerase UL30 (Human herpesvirus 1 (strain 17) (HHV-1) (Human herpes simplex virus 1), UniProt P04293); test: HSV polymerase biochemical assay (molecular beacon-based)
Description: as §1, §2, §3
as §3, with “nm.” for “nm. 1050s were determined using an internal Novartis software (Helios).”

[3] = tested on: Luciferase-encoding HCMV, AD169 strain; test: CMV Luciferase assay (cellular herpesvirus replication); format: cell-based; details: Human betaherpesvirus 5, AD169, read-out: CMV-Luc Cellular EC50
Description: For all viral assays, 10 mM DMSO stock compound solutions were serially diluted in DMSO at 3.16 fold dilutions in 96-well clear round bottom plates. Compounds were then diluted in assay media at 1:20 and subsequently 10 μL of these dilutions were added to cells for final compound concentrations ranging either from 0.0159 μM to 50 μM in 0.5% DMSO/assay media, or from 0.00318 to 10 μM in 0.5% DMSO/assay media.
The assay uses a Luciferase-encoding HCMV. Luciferase is expressed under the control of a late viral gene (pp28) promoter in the AD169 strain, so that expression of the reporter is dependent on viral DNA replication. Compounds that affect any stage from viral entry to DNA replication result in a change in luciferase levels.
Viral replication in the presence or absence of compounds was measured by luciferase activity according to the following procedure: Neo-natal normal human dermal fibroblast cells (NN-NHDF, from ATCC cat #201-010) were seeded at 9,000 cells/well in 96-well white solid bottom plate at 80 uL/well in assay media: 2% FBS, 4 mM GlutaMax® (Invitrogen cat #35050) in DMEM/high glucose/no glutamine/no phenol red media (Invitrogen cat #31053). After 2 hrs at 37° C., 10 uL of compound diluted in assay media or 5% DMSO (final 0.5% DMSO/well) was added and the plates returned to 37° C. One hour later, 10 uL of virus diluted in assay media was added at a final Multiplicity of infection (MOI) of 1. Plates were incubated at 37° C. for 72 hrs. At 72 hours post-infection (hpi), plates were equilibrated to room temperature. After 25 min, 100 uL Renilla-Glo® Luciferase Assay Reagent (Promega cat # E2750) was added to each well and incubated for 10 min. Plates were covered to protect from light. Luminescence was measured on the PHERAstar FS®.
The following controls were included in the data analysis: No virus, no compound (0.5% DMSO)=IC (maximal inhibitory control); Virus, no compound (0.5% DMSO)=NC (neutral control). Data were analyzed using an internal Novartis software (Helios). The means of the controls (NC, IC) were used to normalize the results to a % scale using the formula: % Control=100−(100*(Sample value−NC)/(IC−NC)).
For each compound, the software derived an EC50 using a 4-parameter logistical model.

In the case of `C[C@H](CCO)S(=O)(=O)C1(CN2CCn3c(ccc(C(=O)NCc4ccc(Cl)cc4)c3=O)C2=O)CC1` (single isomer, unassigned) [Example 6, N-(4-chlorobenzyl)-2-((1-((4-hydroxybutan-2-yl)sulfonyl)cyclopropyl)methyl)-1,6-dioxo-2,3,4,6-tetrahydro-1H-pyrido[1,2-a]pyrazine-7-carboxamide], the IC50 [1] is reported as 2.4 nM, the IC50 [2] is reported as 54.8 nM and the EC50 [3] is reported as 92.8 nM.

Work on `C[C@@H](CCO)S(=O)(=O)C1(CN2CCn3c(ccc(C(=O)NCc4ccc(Cl)cc4)c3=O)C2=O)CC1` (single isomer, unassigned) [Example 7, N-(4-chlorobenzyl)-2-((1-((4-hydroxybutan-2-yl)sulfonyl)cyclopropyl)methyl)-1,6-dioxo-2,3,4,6-tetrahydro-1H-pyrido[1,2-a]pyrazine-7-carboxamide] yielded an IC50 [1] of 1 nM, an IC50 [2] of 35.6 nM and an EC50 [3] of 32.8 nM.

`C[C@@H](CCO)S(=O)(=O)C1(CN2CCn3c(ccc(C(=O)NCc4ccc(C#N)cc4)c3=O)C2=O)CC1` (single isomer, unassigned) [Example 8, N-(4-cyanobenzyl)-2-((1-((4-hydroxybutan-2-yl)sulfonyl)cyclopropyl)methyl)-1,6-dioxo-2,3,4,6-tetrahydro-1H-pyrido[1,2-a]pyrazine-7-carboxamide] was tested, and the IC50 [1] was 4.6 nM, the IC50 [2] was 111 nM and the EC50 [3] was 784 nM.

Compound `C[C@H](CCO)S(=O)(=O)C1(CN2CCn3c(ccc(C(=O)NCc4ccc(C#N)cc4)c3=O)C2=O)CC1` (single isomer, unassigned) [Example 9, N-(4-cyanobenzyl)-2-((1-((4-hydroxybutan-2-yl)sulfonyl)cyclopropyl)methyl)-1,6-dioxo-2,3,4,6-tetrahydro-1H-pyrido[1,2-a]pyrazine-7-carboxamide] has an IC50 [1] of 1.7 nM, an IC50 [2] of 73.8 nM and an EC50 [3] of 167 nM.

`C[S@@+]([O-])C1(CN2CCn3c(ccc(C(=O)NCc4ccc(Cl)cc4)c3=O)C2=O)CC1` (single isomer, unassigned) [Example 67-2, N-(4-chlorobenzyl)-2-((1-(methylsulfinyl)cyclopropyl)methyl)-1,6-dioxo-2,3,4,6-tetrahydro-1H-pyrido[1,2-a]pyrazine-7-carboxamide] showed an IC50 [1] of 35.8 nM, an IC50 [2] of 1120 nM and an EC50 [3] of 478 nM.

With `C[S@+]([O-])C1(CN2CCn3c(ccc(C(=O)NCc4ccc(Cl)cc4)c3=O)C2=O)CC1` (single isomer, unassigned) [Example 67-3, N-(4-chlorobenzyl)-2-((1-(methylsulfinyl)cyclopropyl)methyl)-1,6-dioxo-2,3,4,6-tetrahydro-1H-pyrido[1,2-a]pyrazine-7-carboxamide] the IC50 [1] was 292 nM, the IC50 [2] was 13100 nM and the EC50 [3] was 7250 nM.

`C[S@@](=N)(=O)C1(CN2CCn3c(ccc(C(=O)NCc4ccc(Cl)cc4)c3=O)C2=O)CC1` (single isomer, unassigned) [Example 96-1] gave an IC50 [1] of 12.6 nM, an IC50 [2] of 372 nM and an EC50 [3] of 244 nM.

`C[S@](=N)(=O)C1(CN2CCn3c(ccc(C(=O)NCc4ccc(Cl)cc4)c3=O)C2=O)CC1` (single isomer, unassigned) [Example 96-2] was tested, and the IC50 [1] was 66.5 nM, the IC50 [2] was 1920 nM and the EC50 [3] was 847 nM.

Work on `N#Cc1ccc(CNC(=O)c2ccc3n(c2=O)CCN(CC2(S(=O)(=O)[C@H]4CC4(F)F)CC2)C3=O)cc1` (single isomer, unassigned) [Example 100-1] yielded an IC50 [1] of 1.4 nM, an IC50 [2] of 48.2 nM and an EC50 [3] of 93.6 nM.

`N#Cc1ccc(CNC(=O)c2ccc3n(c2=O)CCN(CC2(S(=O)(=O)[C@@H]4CC4(F)F)CC2)C3=O)cc1` (single isomer, unassigned) [Example 100-2] gave an IC50 [1] of 1 nM, an IC50 [2] of 39.5 nM and an EC50 [3] of 43.1 nM.

Compound `N#Cc1ccc(CNC(=O)c2ccc3n(c2=O)CCN(CC2(S(=O)(=O)[C@H]4CC4(F)F)CC2)C3=O)cc1F` (single isomer, unassigned) [Example 101-1] has an IC50 [1] of 1 nM, an IC50 [2] of 48.7 nM and an EC50 [3] of 55.5 nM.

In the case of `N#Cc1ccc(CNC(=O)c2ccc3n(c2=O)CCN(CC2(S(=O)(=O)[C@@H]4CC4(F)F)CC2)C3=O)cc1F` (single isomer, unassigned) [Example 101-2], the IC50 [1] is reported as 0.6 nM, the IC50 [2] is reported as 32.9 nM and the EC50 [3] is reported as 29.6 nM.

`N#Cc1ccc(CNC(=O)c2ccc3n(c2=O)CCN(CC2(S(=O)(=O)[C@H]4CC4(F)F)CC2)C3=O)cc1Cl` (single isomer, unassigned) [Example 102-1] gave an IC50 [1] of 2 nM, an IC50 [2] of 199 nM and an EC50 [3] of 229 nM.

`N#Cc1ccc(CNC(=O)c2ccc3n(c2=O)CCN(CC2(S(=O)(=O)[C@@H]4CC4(F)F)CC2)C3=O)cc1Cl` (single isomer, unassigned) [Example 102-2] was tested, and the IC50 [1] was 1.5 nM, the IC50 [2] was 162 nM and the EC50 [3] was 85.2 nM.

`O=C(NCc1ccc(Cl)cc1)c1ccc2n(c1=O)CCN(CC1(S(=O)(=O)C3CC3)CC1)C2=O` [Example 2] showed an IC50 [1] of 0.2 nM, an IC50 [2] of 15.5 nM and an EC50 [3] of 8.1 nM.

In the case of `N#Cc1ccc(CNC(=O)c2ccc3n(c2=O)CCN(CC2(S(=O)(=O)C4CC4)CC2)C3=O)cc1F` [Example 3-1], the IC50 [1] is reported as 0.8 nM, the IC50 [2] is reported as 38.1 nM and the EC50 [3] is reported as 17.7 nM.

Work on `O=C(NCc1ccc(F)cc1)c1ccc2n(c1=O)CCN(CC1(S(=O)(=O)C3CC3)CC1)C2=O` [Example 3-2] yielded an IC50 [1] of 3 nM, an IC50 [2] of 78.7 nM and an EC50 [3] of 84.8 nM.

In the case of `CN(CCN1CCn2c(c(Br)cc(C(=O)NCc3ccc(Cl)cc3)c2=O)C1=O)S(C)(=O)=O` [Example 122, 9-bromo-N-(4-chlorobenzyl)-2-(2-(N-methylmethylsulfonamido)ethyl)-1,6-dioxo-1,3,4,6-tetrahydro-2H-pyrido[1,2-a]pyrazine-7-carboxamide], the IC50 [1] is reported as 350 nM and the IC50 [2] is reported as 5050 nM.

`CS(=O)(=O)CCCN1CCn2c(c(Br)cc(C(=O)NCc3ccc(Cl)cc3)c2=O)C1=O` [Example 123, 9-bromo-N-(4-chlorobenzyl)-2-(3-(methylsulfonyl)propyl)-1,6-dioxo-1,3,4,6-tetrahydro-2H-pyrido[1,2-a]pyrazine-7-carboxamide] gave an IC50 [1] of 373 nM and an IC50 [2] of 1890 nM.

`CS(=O)(=O)CCCN1CCn2c(c(CF)cc(C(=O)NCc3ccc(Cl)cc3)c2=O)C1=O` [Example 142] gave an IC50 [1] of 351 nM and an IC50 [2] of 2160 nM.
